Assay results reported in US20030040504A1, “Ectoparasiticidal compositions and methods of their use” (priority 2001, published 2003).

How the values were obtained:
[1] = cited from earlier work
[2] = rat, guinea pig, rabbit, hamster, dog or human; cited from earlier work
[3] = at 60° C.; cited from earlier work
[4] = test system: head lice collected from Bristol school children; test: Filter paper disk test of malathion, OVIDE lotion and Composition II on resistant head lice (Example 1); type: in vivo, head lice (Pediculus capitis); conditions: for percentage activity of the lice, 100 being all alive, 0 being all dead: impregnated filter paper disk
Method: Following approval by the South and West Hospital research ethics committee, three primary schools in south Bristol, U.K. were contacted and arrangements were made with the headmaster/mistress and the school nurse to visit the schools and comb the hair of every child who has parental permission. Head lice were collected from children between 4 years and 11 years of age using plastic louse detector combs.
Head lice were placed and maintained at about 30° C. and about 70% relative humidity in a portable incubator for up to about two hours before being placed on filter paper test disks in small disposable petri dishes. These conditions of maintenance were the optimum for the lice off the human head. These head lice were then randomly distributed to petri dishes containing the control or impregnated disks and their activity was monitored by inspection over a four hour period. Since the portable incubator was designed to function either from the mains or a 12 volt source (cigarette lighter outlet in a car) the checking of lice activity was undertaken after leaving the school.
The disks, 5 cm in diameter, are paper, Whatman No. 1 Control paper disks were prepared by dipping papers into isopropanol and allowed to dry. Paper disks were prepared by dipping the paper into the solution of insecticide and allowed it to dry. Solutions used with the paper disks were 0.5% malathion in isopropanol, OVIDE® (malathion 0.5%) lotion, or Composition II disclosed herein. The dried paper disks were then stored overnight in air tight containers before using them the next day.
In the two subsequent tests, filter paper test disks were also used.
Values are given as percentage activity of the lice, 100 being all alive, 0 being all dead.

head lice = test: Viability of head lice on filter paper (Example 2); type: in vivo, head lice (Pediculus capitis)
Method: The viability of head lice was tested on filter paper under conditions as described in Example 1.

CC1=CCC(O)(C(C)C)CC1 (stereo not drawn) [1-terpinen-4-ol, 1-methyl-4-isopropyl-delta-cyclohexene-4-ol]
symptoms observed with acute exposures in humans [1]: CNS depression; cyanosis in extremities; increased urine volume; anti-microbial activity (α-terpineol does not have this activity); and greatly decreased allergic contact eczema compared to dipentene

C=C(C)C1CC=C(C)CC1 (stereo not drawn) [Dipentene, 1-methyl-4-(1-methylethenyl)cyclohexene]
symptoms observed with acute exposures in humans [1]: increased bile flow; hypothermia; increased cytochrome P450 content; hematuria (blood in urine); albuminuria (serum globulin in urine); tachycardia (rapid heart rate); increased allergic contact eczema; and no CNS involvement
metabolic conversion to α-terpineol or 1-terpinen-4-ol [2]: not metabolically converted to either α-terpineol or to 1-terpinen-4-ol

c1ccc2c(c1)CCCC2 [1,2,3,4-tetrahydronaphthalene]
Solubility in Water [3]: < 0.01 % weight
symptoms observed with acute exposures in humans [1]: transient liver damage; production of green-gray urine; CNS excitant at low concentration; depressant at high concentration; nephrotoxic (renal system damage); cataracts; liver and kidney damage; and cytotoxic to ascites cells in culture during short-term mutagenicity testing

CCOC(=O)CC(SP(=S)(OC)OC)C(=O)OCC (stereo not drawn) [Malathion, [(dimethoxyphosphinothioyl)thio]butanedioic acid diethyl ester]
percentage activity of the lice, 100 being all alive, 0 being all dead ([4]; Time 0 mins): 100%
percentage activity of the lice, 100 being all alive, 0 being all dead ([4]; Time 1 mins): 100%
percentage activity of the lice, 100 being all alive, 0 being all dead ([4]; Time 5 mins): 100%
percentage activity of the lice, 100 being all alive, 0 being all dead ([4]; Time 10 mins): 100%
percentage activity of the lice, 100 being all alive, 0 being all dead ([4]; Time 20 mins): 100%
percentage activity of the lice, 100 being all alive, 0 being all dead ([4]; Time 30 mins): 100%
percentage activity of the lice, 100 being all alive, 0 being all dead ([4]; Time 60 mins): 100%
percentage activity of the lice, 100 being all alive, 0 being all dead ([4]; Time 90 mins): 90%
percentage activity of the lice, 100 being all alive, 0 being all dead ([4]; Time 120 mins): 80%
percentage activity of the lice, 100 being all alive, 0 being all dead ([4]; Time 180 mins): 60%
percentage activity of the lice, 100 being all alive, 0 being all dead ([4]; Time 240 mins): 50%
lice killed ([4]; after about 4 hours): approximately 50%
Percent of Lice Still Alive (head lice; After 1 minute): 100%
Percent of Lice Still Alive (head lice; After 5 minutes): 100%
Percent of Lice Still Alive (head lice; After 10 minutes): 100%
Percent of Lice Still Alive (head lice; After 20 minutes): 100%
Percent of Lice Still Alive (head lice; After 30 minutes): 100%
Percent of Lice Still Alive (head lice; After 60 minutes): 100%
Percent of Lice Still Alive (head lice; After Minutes: None): 100%
